Assay results as given in patent US20060079461A1, “Treatment of multiple myeloma by inhibition of p38 MAP kinase” (Scios, Inc., priority 2003, published 2006).

Experiments:
VEGF = VEGF secretion from MM contact-activated BMSC; assay type: cell-based, human
Text: (§1) p38 MAPK controls secretion of these factors in-vitro in systems representing the BM milieu.

HSP-27 [1] = experiment: HSP-27 phosphorylation in MM cells (p38 MAPK activity); assay type: cell-based, human
Method: (§2) Total cell lysates are immunoprecipitated with anti-MAPKAPK-2 antibody and subjected to in vitro kinase assays using purified GST-Hsp27 as substrate. To examine Hsp27 phosphorylation in MM and transformed B cells, U266, IM9 and RPMI8226 cells are incubated either with DMSO or with 0.5 μM of a p38 MAPK inhibitor and cell lysates are immunoblotted with antibodies to phospho-Hsp27 (Ser 82) and Hsp27.
In additional experiments, the p38 MAPK inhibitors are tested for their ability to inhibit Hsp27 phosphorylation. U266, IM9 and RPMI8226 cells are incubated with 0.5 μM of the p38 MAPK inhibitor for 1 hour and Hsp27 proteins are immunoprecipitated with agarose-conjugated Hsp27 antibody, followed by immunoblotting with anti-phospho Hsp27 (Ser 78) antibody.
Specific antibodies to p38 MAP kinase are from Santa Cruz Biotechnology (Santa Cruz, Calif.). Antibodies to phospho-p38 MAP kinase (T180/Y182) and phospho-Hsp27 (S82) are from Cell Signaling (Beverly, Mass.). Antibodies to Hsp27 and phospho-Hsp27 (S78) are from Upstate Biotechnology (Lake Placid, N.Y.). Anti-MAPKAPK-2 is from StressGen (San Diego, Calif.) while anti-GAPDH is from Biogenesis Ltd. (Poole, UK).

HSP-27 [2] = experiment: HSP-27 phosphorylation in BMSC; assay type: cell-based, human
MKK3 and MKK6 = experiment: Activation of p38 MAPK by upstream kinases
BMSC = BMSC viability, MTS assay; assay type: cell-based, human; settings: tested up to 50-fold excess of active concentration
Method: Neither p38 MAPK inhibition nor high concentrations of p38 MAPK inhibitor (tested up to 50-fold excess of active concentration) affected BMSC viability (FIG. 4). Viability was measured using a standard enzymatic assay of respiratory activity, MTS (3-(4,5-dimethylthiazol-2-yl)-5-(3-carboxymethoxyphenyl)-2-(4-sulfophenyl)-2H-tetrazolium). Results obtained with the p38 MAPK inhibitor are in agreement with published results using a different p38α MAPK inhibitor.

[3] = test system: MM cell lines (U266B, RPMI, ARH-77, and IM9); experiment: MM cell proliferation; assay type: cell-based, human; settings: 72-hour exposure; each of four MM cell lines (U266B, RPMI, ARH-77, IM9)
TNF-α = experiment: LPS-induced TNF-α secretion in whole blood; assay type: cell-based, human
Method: Other in vitro assays can assess the production of TNF-α as a correlation to p38 MAP kinase activity. One such example is a Human Whole Blood Assay. In this assay, venous blood is collected from, e.g., healthy male volunteers into a heparinized syringe and is used within 2 hours of collection. Test compounds are dissolved in 100% DMSO and 1 μl aliquots of drug concentrations ranging from 0 to 1 mM are dispensed into quadruplicate wells of a 24-well microtiter plate (Nunclon Delta SI, Applied Scientific Co., San Francisco, Calif.). Whole blood is added at a volume of 1 ml/well and the mixture is incubated for 15 minutes with constant shaking (Titer Plate Shaker, Lab-Line Instruments, Inc., Melrose Park, Ill.) at a humidified atmosphere of 5% CO2 at 37° C. Whole blood is cultured either undiluted or at a final dilution of 1:10 with RPMI 1640 (Gibco 31800+NaHCO3, Life Technologies, Rockville, Md. and Scios, Inc., Sunnyvale, Calif.). At the end of the incubation period, 10 μl of LPS (E. coli 01111:B4, Sigma Chemical Co., St. Louis, Mo.) is added to each well to a final concentration of 1 or 0.1 μg/ml for undiluted or 1:10 diluted whole blood, respectively. The incubation is continued for an additional 2 hours. The reaction is stopped by placing the microtiter plates in an ice bath, and plasma or cell-free supernates are collected by centrifugation at 3000 rpm for 10 minutes at 4° C. […]

COX-2 mRNA = experiment: LPS-induced COX-2 mRNA; assay type: cell-based
PGE2 = PGE2 levels in LPS-induced human whole blood; assay type: cell-based
purified COX-2 enzyme = target: T1, purified COX-2 enzyme (Homo sapiens, UniProt P35354); experiment: Purified COX-2 enzyme activity; assay type: biochemical
T1 sequence (P35354 18-604): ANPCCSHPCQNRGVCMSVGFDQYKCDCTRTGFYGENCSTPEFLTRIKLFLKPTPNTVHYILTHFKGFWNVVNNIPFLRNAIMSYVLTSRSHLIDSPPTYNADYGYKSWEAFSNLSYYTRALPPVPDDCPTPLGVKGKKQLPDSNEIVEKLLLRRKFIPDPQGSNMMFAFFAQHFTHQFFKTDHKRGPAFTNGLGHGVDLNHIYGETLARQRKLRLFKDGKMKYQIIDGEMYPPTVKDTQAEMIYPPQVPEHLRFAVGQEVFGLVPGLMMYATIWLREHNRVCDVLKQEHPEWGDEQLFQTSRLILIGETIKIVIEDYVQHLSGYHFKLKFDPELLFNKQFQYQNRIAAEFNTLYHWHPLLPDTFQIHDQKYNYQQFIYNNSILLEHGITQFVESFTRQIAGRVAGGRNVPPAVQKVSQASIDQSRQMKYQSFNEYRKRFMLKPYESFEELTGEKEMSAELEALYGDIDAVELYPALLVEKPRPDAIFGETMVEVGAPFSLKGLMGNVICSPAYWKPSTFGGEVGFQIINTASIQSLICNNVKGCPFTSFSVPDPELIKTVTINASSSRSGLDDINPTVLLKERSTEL

IL-1β = experiment: LPS-induced IL-1β release in human whole blood; assay type: cell-based; settings: human whole blood (undiluted)
Text: IL-1β illustrates the importance of amplification loops in myeloma-induced cytokine stimulation. IL-1, plays a well-documented role in the induction of multiple cytokines in a “cytokine network” of feedback loops, including strong induction of IL-6. The ability of IL-1 to increase mRNA expression and induce secretion of the MM-relevant cytokines from MM/BMSC cultures is evidence of this role.

IL-11 [4] = experiment: IL-1 and TGFβ induction of IL-11 in BMSC cultures; assay type: cell-based, human; settings: 100 nM
Text: as §1

IL-11 [5] = experiment: IL-1 and TGFβ induction of IL-11 in MM/BMSC cultures; assay type: cell-based, human; settings: 100 nM
Text: as §1

MM cells = experiment: MM cell viability and proliferation with SN-50 co-exposure; assay type: cell-based; settings: co-exposure with SN-50
Text: SN-50 is a cell-permeable specific inhibitor of NF-kappaB nuclear translocation and activity. Nuclear factor-kappaB has been reported to confer significant survival potential in a variety of tumors, including MM cells.

MAPKAPK-2 = MAPKAPK-2 in vitro kinase assay with GST-Hsp27 substrate; assay type: cell-based, human
Method: as §2

Hsp27 = experiment: Total Hsp27 levels in MM cells; assay type: cell-based, human; settings: even after prolonged incubation
Method: as §2

[6] = test system: human myeloma (RPMI8266) tumor; experiment: Beige-nude-xid mouse xenograft plasmacytoma model; assay type: in vivo
Text: Human-multiple myeloma (MM) is an incurable neoplasm of terminally differentiated B cells and MM disease progression is affected by immunoregulatory elements such as IL-6 and other cytokines. […]

multiple myeloma = experiment: Treatment of a patient with multiple myeloma; assay type: in vivo, human
Text: A patient is diagnosed with multiple myeloma. The patient presents with MM cells with rapid growth rates, which displace osteoblasts, and disrupting the balance of bone creation and destruction. A number of MM-related cytokines, such as IL-6, VEGF, IL-11, and PGE-2 are detectable. […] MM cell growth is inhibited and MM-related cytokine product is reduced.

[7] = in combination with an apoptosis promoting agent

COC(=O)C(=O)c1cn(C(=O)c2ccc(Cl)cc2)c2cc(OC)c(C(=O)N3CCC(Cc4ccccc4)CC3)cc12 [Compound 4]
VEGF secretion (VEGF): inhibited

C[C@@H]1CN(Cc2ccc(F)cc2)[C@@H](C)CN1C(=O)c1cc2c(C(=O)C(=O)N(C)C)cn(C)c2cc1Cl [Compound 57]
phosphorylation of HSP-27 (HSP-27 [1]; MM cells): blocked phosphorylation of HSP-27 completely | Hsp27 phosphorylation (HSP-27 [1]; U266, IM9, RPMI8226, cell lysates or immunoprecipitation assays, 0.5 μM): inhibits | p38 MAPK activity (HSP-27 [1]; immunodetection of p38 MAPK kinase target HSP-27): fully suppressed | phosphorylation of HSP-27 (HSP-27 [2]): blocked phosphorylation of HSP-27 completely | direct activation of the p38 MAPK enzyme or activity of kinases upstream of p38 MAPK (MKK3 and MKK6): not the direct activation of the p38 MAPK enzyme or the activity of kinases upstream of p38 MAPK | BMSC viability (BMSC): Neither p38α MAPK inhibition nor high concentrations of Compound 57 (tested up to 50-fold excess of active concentration) affected BMSC viability | reduction in proliferation [3]: about 20% | LPS-induced TNF-α secretion (TNF-α): dose-dependent reduction | LPS-induced COX-2 mRNA (COX-2 mRNA): inhibited | PGE2 levels (PGE2): reduced | activity of the purified COX-2 enzyme (purified COX-2 enzyme): did not directly inhibit | LPS-induced IL-1β release (IL-1β): dose-dependent reduction | IL-1 and TGFβ induction of IL-11 at the mRNA and protein levels (IL-11 [4]): blocked | IL-1 and TGFβ induction of IL-11 at the mRNA and protein levels (IL-11 [5]): blocked | reduction of MM cell viability and proliferation caused by SN-50-induced NFκB inhibition (MM cells): enhances the reduction of MM cell viability and proliferation | activity of downstream substrate MAPKAPK-2 (MAPKAPK-2): suppresses | total Hsp27 levels (Hsp27): does not affect | tumor volume, histological assessment ([6]; at the end of dosing, versus vehicle): significant reduction | number of neoformed microvessels ([6]; histological assessment at the end of dosing): significant reduction | HSP27 expression in tumor cells ([6]; mouse, in vivo): significantly reduces | p38 expression in tumor cells ([6]; mouse, in vivo): significantly reduces | tumor volume ([6]; palpable tumors (~200 mm^3), 90 mg/kg/bid oral gavage, 21 days): significantly reduces | tumor volume ([6]; treatment initiated at pronounced tumor size (~800 mm^3)): significant reduction | MM cell growth (multiple myeloma; [7]): inhibited | MM-related cytokine product (multiple myeloma; [7]): reduced | MM cell growth (multiple myeloma; therapeutic amount, alone): inhibited | MM-related cytokine product (multiple myeloma; therapeutic amount, alone): reduced
